Data from US12612622B2, “Targeted mutagenesis using base editors” (Qi Biodesign Biotechnology Company Limited, priority 2018, dated 2026).
Read-outs that look alike come from different tables or passages of the source.

Legend:
[1] = test system: rice seedlings with OsACC mutations
From the text: The herbicide was applied with pressurized equipment at 0.2 MPa and a spray volume of 450 L/ha. Three weeks later, surviving seedlings were identified.

OsACC = experiment: Saturated de novo mutagenesis of OsACC CT domain in rice protoplasts, 20 sgRNAs; type: cell-based
From the text: To test the ability of STEME to achieve saturated de novo mutagenesis in rice protoplasts, it has been taken acetyl-coenzyme A carboxylase (OsACC) as an example. ACC is a key enzyme in lipid biosynthesis and its carboxyltransferase (CT) domain is the target of herbicides (FIG. 5 b). Amino acid substitutions in the CT domain can confer herbicides resistance on grass. 20 sgRNAs has been designed, including 11 sgRNAs with forward direction NGD-3′ PAMs and 9 with reverse complement 5′-HCN (H=A, T or C) PAMs spanning a 168 bp DNA sequence that encodes 56 amino acids of the CT domain (FIG. 5b). Using STEME-NG, the sgRNAs covered 90.32% of the cytosines, 40.43% of the adenines, 77.78% of the guanines, and 38.89% of the thymines in the editing windows, corresponding in all to 61.31% of the bases of the coding strand. These sgRNAs has been co-transfected individually together with STEME-NG into rice protoplasts. A3A-PBE-NG and pCas9-NG served as controls. […] No base conversions were detected in the untreated control.
We also analyzed the amino acid substitutions generated by STEME-NG in the targeted 56 amino acids. […] Of these, twenty-four, twelve, and five amino acids had one, two, and three kinds of amino acids substitution, respectively. […] Similarly, A3A-PBE-NG mutated 33 amino acids, of which twenty-six, six, and one contained one, two, and three kinds of amino acids substitution, respectively. […] Thus, it promises to be a powerful tool for directed evolution of endogenous genes by saturated de novo mutagenesis in situ.
We used the Japonica rice variety Nipponbare to prepare protoplasts. Protoplast isolation and transformation were performed as described (Shan, Q. et al. Rapid and efficient gene modification in rice and Brachypodium using TALENs. Mol. Plant 6, 1365-1368 (2013).). 10 μg each of nuclease and sgRNA plasmid DNA were introduced into the protoplasts by PEG-mediated transfection, with a mean transformation efficiency of 40-55% as measured by hemocytometer. The transfected protoplasts were incubated at 23° C. and 60 h post-transfection they were collected and genomic DNA extracted for amplicon deep sequencing.
DNA extraction. The genomic DNA of protoplasts was extracted with a DNA-Quick Plant System (Tiangen Biotech, Beijing, China). Genomic DNA of regenerated rice seedlings was extracted with CTAB, and all the seedlings in each group were sampled together. The targeted site was amplified with specific primers, and the amplicons were purified with an EasyPure PCR Purification Kit (TransGen Biotech, Beijing, China), and quantified with a NanoDrop™ 2000 Spectrophotometer (Thermo Fisher Scientific, Waltham, MA, USA).

OsACCase gene = experiment: Base editing (pZRH-PBE + individual sgRNAs) of OsACCase functional domain in transgenic M0 rice plants; type: in vivo; details: for Frequency of indel (%) / Frequency of substitution (%) / No. of WT / No. of indel / No. of substitution: transgenic M0 plants; for No. of WT / No. of indel / No. of substitution: per sgRNA target
From the text: For individual cloning, the following method is used. APOBEC1, partial nCas9 and UGI sequences (SEQ ID NO: 129) without BsaI were synthesized commercially (GenScript, Nanjing, China) and cloned into the pUC57 (SEQ ID NO: 130) as intermediate vector. […] The full length APOBEC1-nCas9-UGI was excised using XmaJI and SacI, then was subcloned into pHUE411 that had been digested using the same two enzymes. The resultant vector pZRH-PBE (SEQ ID NO: 133) was used to construct sgRNA expression plasmids using restriction enzyme site BsaI.

[2] = edited allele with the substitution of the same table line

For `CC(Oc1ccc(Oc2ncc(C(F)(F)F)cc2Cl)cc1)C(=O)O` (centres unmarked) [haloxyfop], the “herbicide resistance of seedlings” value ([1]; Group 2 seedlings, S1866F heterozygotes) was “slightly weaker haloxyfop resistance”, the “herbicide resistance of seedlings” value ([1]; Group 3 seedlings, A1884P heterozygotes) was “slightly weaker haloxyfop resistance” and the “herbicide resistance of seedlings” value ([1]; Group 6 seedlings carrying P1927F, spray 34 g active ingredient ha-1, three weeks) was “clearly herbicide resistant”. For the same molecule, the “herbicide resistance of seedlings” value ([1]; Group 20 seedlings carrying W2125C, spray 34 g active ingredient ha-1, three weeks) was “clearly herbicide resistant”.

For “A3A-PBE-NG: A3A-PBE with nCas9-NG (D10A); protein SEQ ID NO: 186”, the “amino acids with one kind of amino acid substitution” value (OsACC) was “twenty-six”, the “amino acids with three kinds of amino acid substitution” value (OsACC) was “one” and the “amino acids with two kinds of amino acid substitution” value (OsACC) was “six”. For the same molecule, the “A>G or T>C substitutions” value (OsACC; coding strand) was “no A>G or T>C substitutions were found”, the “Cs converted to Ts in the covered bases” value (OsACC; coding strand) was 89.29% and the “Gs converted to As in the covered bases” value (OsACC; coding strand) was 92.86%. The amino acids substituted (OsACC; of the targeted 56 amino acids, silent, missense, nonsense) was 33 and the indels (OsACC; rice protoplasts, 20 sgRNAs) was under 0.01%.

In the case of “R39: sgRNA in pZRH-PBE; OsACCase target site CCGTTGGACCCACCGGACAGACC (SEQ ID NO: 125) (expressed or natural sequence; target site or template, no part of the molecule)”, the No. of alleles (OsACCase gene; [2]) is reported as 1, the “Frequency of indel (%)” value (OsACCase gene) is reported as 50.0% and the “Frequency of substitution (%)” value (OsACCase gene) is reported as 25.0%. For the same molecule, the “No. of WT” value (OsACCase gene) was 1, the No. of indel (OsACCase gene) was 2 and the No. of substitution (OsACCase gene) was 1. The No. of alleles (OsACCase gene; unedited target site sequence) was 1.

In the case of “R31: sgRNA in pZRH-PBE; OsACCase target site GACTGCAAAAGGCAATGTTCTGG (SEQ ID NO: 102) (expressed or natural sequence; target site or template, no part of the molecule)”, the No. of alleles (OsACCase gene; [2]) is reported as 1, the “Frequency of indel (%)” value (OsACCase gene) is reported as 0.0% and the “Frequency of substitution (%)” value (OsACCase gene) is reported as 5.9%. For the same molecule, the “No. of WT” value (OsACCase gene) was 16, the No. of indel (OsACCase gene) was 0 and the No. of substitution (OsACCase gene) was 1. It also gave a No. of alleles (OsACCase gene; unedited target site sequence) of 1.

With “R5: sgRNA in pZRH-PBE; OsACCase target site CCACATGCAGTTGGGTGGTCCCA (SEQ ID NO: 15) (expressed or natural sequence; target site or template, no part of the molecule)” the “Frequency of indel (%)” value (OsACCase gene) was 0.0%, the “Frequency of substitution (%)” value (OsACCase gene) was 65.4% and the “No. of WT” value (OsACCase gene) was 18. It also gave a No. of indel (OsACCase gene) of 0, a No. of substitution (OsACCase gene) of 34 and a No. of alleles (OsACCase gene; unedited target site sequence) of 12.

With “R20: sgRNA in pZRH-PBE; OsACCase target site TTTACACTTACATTTGTGACTGG (SEQ ID NO: 73) (expressed or natural sequence; the letters are possibly those of the target site)” the No. of alleles (OsACCase gene; [2]) was 1, the “Frequency of indel (%)” value (OsACCase gene) was 0.0% and the “Frequency of substitution (%)” value (OsACCase gene) was 16.7%. The “No. of WT” value (OsACCase gene) was 11, the No. of indel (OsACCase gene) was 0 and the No. of substitution (OsACCase gene) was 2. For the same molecule, the No. of alleles (OsACCase gene; unedited target site sequence) was 2.

For “R19: sgRNA in pZRH-PBE; OsACCase target site TGCTTATTCTAGGGCATATAAGG (SEQ ID NO: 71) (expressed or natural sequence; target site or template, no part of the molecule)”, the No. of alleles (OsACCase gene; [2]) was 1, the “Frequency of indel (%)” value (OsACCase gene) was 0.0% and the “Frequency of substitution (%)” value (OsACCase gene) was 6.9%. The “No. of WT” value (OsACCase gene) was 27, the No. of indel (OsACCase gene) was 0 and the No. of substitution (OsACCase gene) was 2. The No. of alleles (OsACCase gene; unedited target site sequence) was 1.

In the case of “R38: sgRNA in pZRH-PBE; OsACCase target site CCTGTTGCATACATTCCTGAGAA (SEQ ID NO: 122) (expressed or natural sequence; target site or template, no part of the molecule)”, the “Frequency of indel (%)” value (OsACCase gene) is reported as 28.6%, the “Frequency of substitution (%)” value (OsACCase gene) is reported as 35.7% and the “No. of WT” value (OsACCase gene) is reported as 5. The No. of indel (OsACCase gene) was 4, the No. of substitution (OsACCase gene) was 5 and the No. of alleles (OsACCase gene; unedited target site sequence) was 4.

For “R8: sgRNA in pZRH-PBE; OsACCase target site TTCCTCGTGCTGGACAAGTGTGG (SEQ ID NO: 32) (expressed or natural sequence; target site or template, no part of the molecule)”, the “Frequency of indel (%)” value (OsACCase gene) was 10.5%, the “Frequency of substitution (%)” value (OsACCase gene) was 59.6% and the “No. of WT” value (OsACCase gene) was 17. The No. of indel (OsACCase gene) was 6, the No. of substitution (OsACCase gene) was 34 and the No. of alleles (OsACCase gene; unedited target site sequence) was 9.

In the case of “R36: sgRNA in pZRH-PBE; OsACCase target site CCTCGAGCGGCTATCCGTGGTGT (SEQ ID NO: 115) (expressed or natural sequence; the letters are possibly those of the target site)”, the No. of alleles (OsACCase gene; [2]) is reported as 1, the “Frequency of indel (%)” value (OsACCase gene) is reported as 0.0% and the “Frequency of substitution (%)” value (OsACCase gene) is reported as 35.7%. The “No. of WT” value (OsACCase gene) was 9, the No. of indel (OsACCase gene) was 0 and the No. of substitution (OsACCase gene) was 5. For the same molecule, the No. of alleles (OsACCase gene; unedited target site sequence) was 3.

In the case of “R40: sgRNA in pZRH-PBE; OsACCase target site CCTATTATTCTTACAGGCTATTC (SEQ ID NO: 127) (chemistry not fully specified; the letters are possibly those of the target site)”, the No. of alleles (OsACCase gene; [2]) is reported as 1, the “Frequency of indel (%)” value (OsACCase gene) is reported as 6.7% and the “Frequency of substitution (%)” value (OsACCase gene) is reported as 13.3%. For the same molecule, the “No. of WT” value (OsACCase gene) was 12, the No. of indel (OsACCase gene) was 1 and the No. of substitution (OsACCase gene) was 2. For the same molecule, the No. of alleles (OsACCase gene; unedited target site sequence) was 1.

With “R35: sgRNA in pZRH-PBE; OsACCase target site CCAAGGGAAATGGTTAGGTGCTA (SEQ ID NO: 113) (guide CCAAGGGAAATGGTTAGGTGGTA; sgRNA expressed from vector pZRH-PBE, further chemistry not given here; the letters are possibly those of the target site)” the No. of alleles (OsACCase gene; [2]) was 2, the “Frequency of indel (%)” value (OsACCase gene) was 0.0% and the “Frequency of substitution (%)” value (OsACCase gene) was 12.5%. The “No. of WT” value (OsACCase gene) was 7, the No. of indel (OsACCase gene) was 0 and the No. of substitution (OsACCase gene) was 1. The No. of alleles (OsACCase gene; unedited target site sequence) was 0.

For “R22: sgRNA in pZRH-PBE; OsACCase target site ACTGTTTCAGATGACCTTGAAGG (SEQ ID NO: 79) (expressed or natural sequence; the letters are possibly those of the target site)”, the No. of alleles (OsACCase gene; [2]) was 4, the “Frequency of indel (%)” value (OsACCase gene) was 0.0% and the “Frequency of substitution (%)” value (OsACCase gene) was 18.8%. For the same molecule, the “No. of WT” value (OsACCase gene) was 13, the No. of indel (OsACCase gene) was 0 and the No. of substitution (OsACCase gene) was 3. The No. of alleles (OsACCase gene; unedited target site sequence) was 2.
